In PubChem BioAssay AID248 (DTP/NCI, 2004):
“And” between values parts separate entries of the source, which are not always exact repeats. Equal entries are not always repeated. Toxic doses and inconclusive results are not listed. Rule as the data show it: active = T/C of 150% or more; inactive = T/C below 125%.

Tested on: L1210 leukemia ip in BDF1 mice, survival T/C
Experiment: NCI In Vivo Anticancer Drug Screen. Data for tumor model L1210 Leukemia (intraperitoneal) in B6D2F1 (BDF1) mice
Details: endpoint: mean survival time, higher = longer survival
How it was run: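 Tumor was transplanted into mice, which were then dosed with test compound or vehicle alone. Survival was recorded for each group, and the treated figure was expressed relative to the control figure.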

[1] = dose: 100.0 mg/kg/injection, schedule: Q01DX001 (ip), vehicle: carboxymethylcellulose (CMC)
[2] = dose: 200.0 mg/kg/injection, schedule: Q01DX001 (ip), vehicle: carboxymethylcellulose (CMC)
[3] = dose: 100.0 mg/kg/injection, schedule: Q04DX003 (ip), vehicle: saline with Tween-80
[4] = dose: 200.0 mg/kg/injection, schedule: Q04DX003 (ip), vehicle: saline with Tween-80
[5] = dose: 400.0 mg/kg/injection, schedule: Q04DX003 (ip), vehicle: saline with Tween-80
[6] = dose: 100.0 mg/kg/injection, schedule: Q01DX001 (ip), vehicle: saline
[7] = dose: 200.0 mg/kg/injection, schedule: Q01DX001 (ip), vehicle: saline
[8] = dose: 100.0 mg/kg/injection, schedule: Q04DX002 (ip), vehicle: saline with Tween-80
[9] = dose: 200.0 mg/kg/injection, schedule: Q04DX002 (ip), vehicle: saline with Tween-80
[10] = dose: 400.0 mg/kg/injection, schedule: Q04DX002 (ip), vehicle: saline with Tween-80

Measured: T/C

Cc1cccc(C(=O)N(C)C(c2ccco2)P(=O)(c2ccccc2)c2ccccc2)c1 (configuration not stated)
inactive: dose: 50.0 mg/kg/injection, schedule: Q01DX001 (ip), vehicle: carboxymethylcellulose (CMC) 103 % of control | dose: 50.0 mg/kg/injection, schedule: Q01DX009 (ip), vehicle: carboxymethylcellulose (CMC) 94 % of control and 92 % of control | [1] 104 % of control | dose: 100.0 mg/kg/injection, schedule: Q01DX009 (ip), vehicle: carboxymethylcellulose (CMC) 94 % of control and 95 % of control | [2] 95 % of control | dose: 200.0 mg/kg/injection, schedule: Q01DX009 (ip), vehicle: carboxymethylcellulose (CMC) 89 % of control

CC(O)c1ccc2ccccc2c1 (configuration not stated)
inactive: [3] 98 % of control | [4] 101 % of control | [5] 96 % of control

N#CC(C#N)=NNc1cccc(Cl)c1Cl
inactive: dose: 5.0 mg/kg/injection, schedule: Q01DX009 (ip), vehicle: saline with Tween-80 90 % of control | dose: 10.0 mg/kg/injection, schedule: Q01DX009 (ip), vehicle: saline with Tween-80 88 % of control

CC(=O)OC1CCC2(C)C3CCC4(C)C(C(C)/C=C/C(C)C(C)C)CCC4C34C=CC2(C1)C1C(=O)OC(=O)C14 (configuration not stated)
inactive: dose: 100.0 mg/kg/injection, schedule: Q04DX002 (ip), vehicle: saline 93 % of control | dose: 200.0 mg/kg/injection, schedule: Q04DX002 (ip), vehicle: saline 96 % of control | dose: 400.0 mg/kg/injection, schedule: Q04DX002 (ip), vehicle: saline 89 % of control

O=C(CNC(=O)c1ccc(Cl)cc1Cl)N/N=C/c1cccc([N+](=O)[O-])c1
inactive: dose: 12.5 mg/kg/injection, schedule: Q01DX009 (ip), vehicle: saline with Tween-80 96 % of control | dose: 50.0 mg/kg/injection, schedule: Q01DX009 (ip), vehicle: saline with Tween-80 89 % of control

NC1C2C3C=CC(C(C(=O)O)C3C(=O)O)C12 (configuration not stated)
inactive: dose: 100.0 mg/kg/injection, schedule: Q04DX003 (ip), vehicle: Klucel (hydroxypropylcellulose) (HPC) 98 % of control | dose: 200.0 mg/kg/injection, schedule: Q04DX003 (ip), vehicle: Klucel (hydroxypropylcellulose) (HPC) 102 % of control | dose: 400.0 mg/kg/injection, schedule: Q04DX003 (ip), vehicle: Klucel (hydroxypropylcellulose) (HPC) 101 % of control

OC(c1ccccc1)c1cccc(Br)c1 (configuration not stated)
inactive: dose: 100.0 mg/kg/injection, schedule: Q01DX009 (ip), vehicle: acetone 104 % of control | dose: 100.0 mg/kg/injection, schedule: Q04DX003 (ip), vehicle: saline 96 % of control | dose: 200.0 mg/kg/injection, schedule: Q01DX009 (ip), vehicle: acetone 107 % of control | dose: 200.0 mg/kg/injection, schedule: Q04DX003 (ip), vehicle: saline 105 % of control | dose: 400.0 mg/kg/injection, schedule: Q01DX009 (ip), vehicle: acetone 100 % of control | dose: 400.0 mg/kg/injection, schedule: Q04DX003 (ip), vehicle: saline 89 % of control

Clc1ccc(-n2cnnn2)cc1
inactive: [6] 98 % of control | [7] 98 % of control

CC(C)(C)c1cc(C=O)cc(C(C)(C)C)c1O
inactive: [8] 95 % of control | [9] 95 % of control | [10] 91 % of control

Oc1ccc(O)c2c1CNCC2O (configuration not stated)
inactive: [6] 97 % of control | [7] 104 % of control

Nc1cc(Cl)c(Cl)cc1Cl
inactive: [3] 97 % of control | [4] 101 % of control | [5] 100 % of control

O=C(O)C1Cc2ccccc2-c2ccccc21 (configuration not stated)
inactive: dose: 75.0 mg/kg/injection, schedule: Q01DX001 (ip), vehicle: saline 102 % of control | dose: 150.0 mg/kg/injection, schedule: Q01DX001 (ip), vehicle: saline 88 % of control | dose: 300.0 mg/kg/injection, schedule: Q01DX001 (ip), vehicle: saline 100 % of control

CCCCOP(=O)(Cc1cc(C)cc(C)c1)OCCCC
inactive: [3] 87 % of control | [4] 101 % of control

CCN(CC)Cc1c(C)cc2oc(=O)c3c(c2c1O)CCCC3
inactive: [1] 93 % of control | [2] 93 % of control

CCCCCCCCC1C(CCCCCCCC(=O)OC)SC(F)(F)C1(F)F (configuration not stated)
inactive: dose: 100.0 mg/kg/injection, schedule: Q01DX009 (ip), vehicle: saline with Tween-80 95 % of control | dose: 200.0 mg/kg/injection, schedule: Q01DX009 (ip), vehicle: saline with Tween-80 93 % of control | dose: 400.0 mg/kg/injection, schedule: Q01DX009 (ip), vehicle: saline with Tween-80 102 % of control

Cc1ccc(S(=O)(=O)OC[C@H]2CC=CC[C@H]2COS(=O)(=O)c2ccc(C)cc2)cc1
inactive: dose: 75.0 mg/kg/injection, schedule: Q01DX009 (ip), vehicle: saline with Tween-80 91 % of control | dose: 100.0 mg/kg/injection, schedule: Q01DX009 (ip), vehicle: DMSO 95 % of control | dose: 100.0 mg/kg/injection, schedule: Q04DX003 (ip), vehicle: DMSO 86 % of control | [3] 88 % of control | dose: 150.0 mg/kg/injection, schedule: Q01DX009 (ip), vehicle: saline with Tween-80 107 % of control | dose: 200.0 mg/kg/injection, schedule: Q01DX009 (ip), vehicle: DMSO 101 % of control | dose: 200.0 mg/kg/injection, schedule: Q04DX003 (ip), vehicle: DMSO 86 % of control | [4] 86 % of control | dose: 300.0 mg/kg/injection, schedule: Q01DX009 (ip), vehicle: saline with Tween-80 101 % of control | dose: 400.0 mg/kg/injection, schedule: Q04DX003 (ip), vehicle: DMSO 88 % of control

CCC(Oc1ccccc1OC)C(=O)O (configuration not stated)
inactive: dose: 100.0 mg/kg/injection, schedule: Q01DX001 (ip), vehicle: Klucel (hydroxypropylcellulose) (HPC) 105 % of control | dose: 200.0 mg/kg/injection, schedule: Q01DX001 (ip), vehicle: Klucel (hydroxypropylcellulose) (HPC) 103 % of control | dose: 400.0 mg/kg/injection, schedule: Q01DX001 (ip), vehicle: Klucel (hydroxypropylcellulose) (HPC) 103 % of control

COc1ccc(/C=N/N=C(N)N)cc1S(=O)(=O)O
inactive: dose: 15.0 mg/kg/injection, schedule: Q01DX Z (ip), vehicle: saline 95 % of control | dose: 30.0 mg/kg/injection, schedule: Q01DX Z (ip), vehicle: saline 90 % of control | dose: 60.0 mg/kg/injection, schedule: Q01DX Z (ip), vehicle: saline 88 % of control | dose: 60.0 mg/kg/injection, schedule: Q01DX Z (oral), vehicle: saline 95 % of control | dose: 120.0 mg/kg/injection, schedule: Q01DX Z (ip), vehicle: saline 92 % of control | dose: 120.0 mg/kg/injection, schedule: Q01DX Z (oral), vehicle: saline 97 % of control | dose: 240.0 mg/kg/injection, schedule: Q01DX Z (oral), vehicle: saline 97 % of control | dose: 480.0 mg/kg/injection, schedule: Q01DX Z (oral), vehicle: saline 98 % of control

CCOC(CC)OCC
inactive: [6] 97 % of control | [7] 103 % of control | dose: 400.0 mg/kg/injection, schedule: Q01DX001 (ip), vehicle: saline 94 % of control

CCC(Cl)COP(=O)(OCC(Cl)CC)OC(c1ccc(Cl)c(Cl)c1)P(=O)(OCC(Cl)CC)OCC(Cl)CC (configuration not stated)
inactive: dose: 50.0 mg/kg/injection, schedule: Q01DX001 (ip), vehicle: saline with Tween-80 95 % of control | dose: 100.0 mg/kg/injection, schedule: Q01DX001 (ip), vehicle: saline with Tween-80 103 % of control | dose: 200.0 mg/kg/injection, schedule: Q01DX001 (ip), vehicle: saline with Tween-80 93 % of control

C=C(CCCCCCCCCCCCCCCC)C(=O)O
inactive: [8] 91 % of control | [10] 88 % of control

Cc1ccc(N=Cc2cc(Br)ccc2O)cc1Cl
inactive: [8] 107 % of control | [9] 107 % of control | [10] 96 % of control
